COc1cc2c(cc1OC)-c1cc3ccc(OC)c(OC)c3c[n+]1CC2.[Cl-]
solubility (mole fraction)
Conditions	283.15 K	288.15 K	293.15 K	298.15 K	303.15 K	308.15 K	313.15 K	318.15 K	323.15 K	328.15 K
in ethanol	0.00254	0.00299	0.00366	0.0045	0.00543	0.00651	0.00779	0.00914	0.0108	0.0127
in ethylene glycol	0.00173	0.00202	0.00242	0.003	0.00362	0.00441	0.00529	0.00631	0.00745	0.00882
in isopropanol	0.000177	0.000218	0.00028	0.000374	0.000479	0.000603	0.000754	0.000933	0.00115	0.00141
in propylene glycol	6.32e-06	9.38e-06	1.36e-05	2.11e-05	3.12e-05	4.53e-05	6.48e-05	9.27e-05	0.00013	0.00018
in water	0.000565	0.000693	0.000877	0.0011	0.00136	0.00165	0.002	0.0024	0.00287	0.00341

From BigSolDB 2.1
